Several values for one entry are separate records, joined by “and”; a condition that tells them apart may be missing. Identical values can stand only once. Like-named read-outs stand apart in the source and are kept apart here.
Experiments:
[1] = system: Human fibroblasts [strain NS]; assay: Protection of human fibroblasts against glutathione depletion (survival in cystine/methionine deficient EMEM, 48 hr); assay type: cell-based; details: Fibroblast, read-out: EC90 (concentration at which more than 90% of the fibroblasts survive 48 hours after treatment)
Procedure: Human fibroblasts [strain NS] were cultured in cystine/methionine deficient EMEM for 48 hr. In control cultures not receiving any treatment, all cells became necrotic. Cell death was scored by phase contrast microscopy. Table 1 summarizes the EC90 values observed with the compounds of formula (I), i.e. the concentration at which more than 90% of the fibroblasts survive 48 hours after treatment with a compound of formula (I).

[2] = system: primary neuronal (embryonic hippocampal) cultures; assay: Survival-rescue of primary embryonic hippocampal cultures in vitE depleted medium (cytoplasmic LDH activity); assay type: cell-based, rat; details: for EC50: Rattus norvegicus, mean ± SD (number of dose responses), 50% of survival in vitE supplemented medium
Procedure: Primary embryonic hippocampal cultures were prepared essentially as described previously (Pauwels, P, Van Aschouw, H. P., Peeters, L., Moeremans, M., Leysen, J. E. 1992. Chronic treatment with sabeluzole protects cultured rat brain neurons from the neurotoxic effects of excitatory amino acids. Synapse, 12:271-280). Hippocampal formations of rats at embryonic day 17 were dissected and dissociated in 0.05% trypsin, 0.1 mg/ml DNase I in DMEM (Dulbecco Modified Eagle Medium). Heat-inactivated horse serum (HS) was added to a concentration of 4%, and the cells were centrifuged, washed with DMEM, and resuspended in DMEM/Ham's F12 (3:1) containing 10% HS. The cells were plated at a density of 4×10^5 cells/cm^2 in poly L-lysine (0.001%) pre-coated multiwell-24 plates. On day 1 in culture, the medium was changed to chemically defined CDM-R12 medium (DMEM-HEPES/Ham's F12 (3:1) containing 0.26% bovine serum albumin, 30 nM sodium selenite, 3 nM 3,3',5 triiodo-L-thyronine, 0.35 μM retinol, 0.3 μM retinol acetate, 2.3 μM DL-a-tocopherol, 2.1 μM DL-α-tocopherol acetate, […] linolenic acid, 3.6 μM linoleic acid, 0.125% human transferrin, 20 nM progesterone, 57.7 nM corticosterone, 49 U/l insulin, 0.4 μM biotin, 10 μM L-carnitine, 83 μM D(+)-galactose, 3.3 μM glutathione, 10 μM ethanolamine, 0.1 mM putrescine; Romijn, H. J., van Huizen, F., Wolters, P. S. 1984. Towards an improved serum-free, chemically defined medium for long-term culturing of cerebral cortex tissue. Neurosci. Behav. Rev., 8:301-334), either with (control) or without DL-α-tocopherol (VitE) and DL-α-tocopherol acetate, in the presence or absence of test compound. […] Addition of compounds could rescue the cultures. Culture survival was measured by means of cytoplasmic LDH activity. The EC50 for survival-rescue in vitE depleted cultures refers to the concentration of the compound required to restore culture survival to 50% of the survival seen for the culture grown in vitE supplemented medium. Seven concentrations of each compound were tested in triplicate, the number of independent experiments is indicated in the table, and the mean EC50 -value ± SD was calculated (Table 2).
Primary neuronal cultures depend on the presence of the antioxidant vitE in the culture medium for survival in vitro. When vitE depleted medium is used to grow the cultures, survival drops to ±20% of control. Compounds with antioxidative properties are able to complement the lack of vitE, and as such can when added to the culture medium, rescue vitE devoid cultures. Several derivatives of formula (I) were tested at 10^-7 M and 10^-6 M in the vitE depletion test on primary neuronal cultures, and were all able to rescue survival of vitE depleted cultures to a certain extent (Table 2).

[3] = system: C6 glioma cells; assay: Glutathione depletion-induced intracellular peroxides in C6 glioma cells (C-DCDHF fluorescence); assay type: cell-based; details: for Level of intracellular peroxides: 1 μM compound + glutamate 10 mM, n ≥ 3 (Table 5); for Level of intracellular peroxides / Intracellular peroxides: mean ± SEM; for Intracellular peroxides: glutamate 10 mM alone, n = 5 (Table 3)
Procedure: Fluorescence measurement of intracellular peroxides: Formation of intracellular peroxides was detected using 6-carboxy-2',7'-dichlorodihydrofluorescin diacetate, di(acetoxymethyl ester) (C-DCDHF, Molecular Probes). C-DCDHF was dissolved in DMSO at a concentration of 10 mM and stored at -70° C. under nitrogen. After exposure of the culture to 10 mM glutamate for 14~20 hr, the cells were loaded with 100 μM fluorophore for one hour at 37° C. Medium was aspirated off, PBS was added to the cells, and plates were read in a Cytofluor II micro plate fluorescence reader (PerSeptive Biosystems).Excitation and emission wavelength were selected with a 485/530 nm filter pair. Fluorescence intensity, expressed in relative fluorescence units (rfu)/μg cellular protein was used as index of intracellular peroxides.

[4] = system: C6 glioma cells; assay: Glutathione depletion-induced cell toxicity in C6 glioma cells (LDH release; protection); details: for IC50 / cytotoxicity at 10000 µM: C6 glioma; for IC50: read-out: Protection IC50; for cytotoxicity at 10000 µM: Rattus norvegicus
Procedure: Cultures were maintained at 37° C. in an air/5~10% CO2, water saturated atmosphere.
After 8-24 hr, the cultures were switched to culture medium in the absence or presence of the GSH depleting compound glutamate (10 mM).

[5] = system: C6 glioma cells; assay: GSH content in C6 glioma cell culture; assay type: cell-based; details: for GSH level: mean ± SEM, n = 3
Description: The GSH content was deduced from a standard curve ranging from 0.2 to 2 nmol commercial GSH per test (ΔA/min plotted versus concentration).

[6] = Plasma levels; assay type: in vivo

CCCNc1ccc2c(c1)SC1=NCCN12 [Compound 1]
EC90 [1]: 40000 nM

CNc1ccc2c(c1)SC1=NCCN12 [Compound 2]
EC90 [1]: 200000 nM

c1cc2c(cc1NC1CCCCC1)SC1=NCCN12 [Compound 3]
EC50 [2]: 120 ± 71 nM | Level of intracellular peroxides [3]: 22 ± 2 rfu/μg protein | IC50 [4]: 18 ± 3 nM | EC90 [1]: 40000 nM

c1cc2c(cc1NC1CCCC1)SC1=NCCN12 [Compound 4]
EC50 [2]: 177 ± 59 nM | Level of intracellular peroxides [3]: 18 ± 2 rfu/μg protein | IC50 [4]: 29 ± 7 nM | EC90 [1]: 40000 nM

CC(C)Nc1ccc2c(c1)SC1=NCCN12 [Compound 5]
EC90 [1]: 40000 nM

CN(C)c1ccc2c(c1)SC1=NCCN12 [Compound 6]
EC90 [1]: 40000 nM

c1cc2c(cc1NC1CCCCCC1)SC1=NCCN12 [Compound 7, N-cycloheptyl-2,3dihydro-imidazo[2,1-b]benzothiazol-7-amine]
EC50 [2]: 25 ± 12 nM | complete rescue of primary neuronal cultures grown in VitE depleted medium (concentration) ([2]; VitE depleted medium): 10^-7 M | potency rank in vitE depletion test ([2]; in words): the most potent compound | antioxidative activity relative to vitE ([2]; vitE depletion test, estimated): about 100 times more potent than vitE | GSH level relative to solvent control ([5]; 1 μM compound + glutamate 10 mM, in words): about one third of the solvent control level | GSH level ([5]; 1 μM compound + glutamate 10 mM): 242 ± 54 pmol/well | IC50 ([3]; individual values of 2 experiments, read-out: Inhibition of intracellular peroxides IC50): 28 nM and 71 nM | protection from cell death ([4]; 1 μM, glutamate 10 mM, in words): fully protected | IC50 [4]: 9 nM | plasma levels upon reiterated or chronic administration ([6]; reiterated or chronic administration, in words): progressively increase until a steady state is reached | period of effective plasma levels ([6]; two doses (b.i.d.)): 24 h | EC90 [1]: 320 nM

CCNc1ccc2c(c1)SC1=NCCN12 [Compound 8]
EC90 [1]: 200000 nM

CCC(CC)Nc1ccc2c(c1)SC1=NCCN12 [Compound 9]
EC90 [1]: 40000 nM

CCCCNc1ccc2c(c1)SC1=NCCN12 [Compound 10]
EC90 [1]: 200000 nM

CCC(C)Nc1ccc2c(c1)SC1=NCCN12 (stereo not shown) [Compound 11]
EC50 [2]: 224 nM | EC90 [1]: 40000 nM

CCCC(C)Nc1ccc2c(c1)SC1=NCCN12 (stereo not shown) [Compound 12]
EC50 [2]: 370 ± 169 nM | Level of intracellular peroxides [3]: 24 ± 1 rfu/μg protein | IC50 [4]: 29 ± 14 nM | EC90 [1]: 40000 nM

CCCCC(C)Nc1ccc2c(c1)SC1=NCCN12 (stereo not shown) [Compound 13]
EC50 [2]: 45 nM | Level of intracellular peroxides [3]: 19 ± 1 rfu/μg protein | IC50 [4]: 10 ± 5 nM | EC90 [1]: 8000 nM

CC(C)(C)CNc1ccc2c(c1)SC1=NCCN12 [Compound 14]
EC90 [1]: 8000 nM

CCCN(CCC)c1ccc2c(c1)SC1=NCCN12 [Compound 15]
EC90 [1]: 40000 nM

CCCCCCNc1ccc2c(c1)SC1=NCCN12 [Compound 16, N-hexyl-2,3-dihydro-imidazo[2,1-b]benzothiazol-7-amine]
EC50 [2]: 41 ± 18 nM | Level of intracellular peroxides [3]: 21 ± 1 rfu/μg protein | IC50 [4]: 5 ± 1 nM | EC90 [1]: 1600 nM

c1cc2c(cc1NC1C3CC4CC(C3)CC1C4)SC1=NCCN12 (stereo not shown) [Compound 17]
EC50 [2]: 47 ± 19 nM | Level of intracellular peroxides [3]: 19 ± 1 rfu/μg protein | IC50 [4]: 12 ± 2 nM

Cc1cc(NC2CCCC2)c(C(C)C)c2c1N1CCN=C1S2 [Compound 18]
EC50 [2]: 126 nM | Level of intracellular peroxides [3]: 19 ± 1 rfu/μg protein | IC50 [4]: 25 ± 14 nM

N[C@@H](CCC(=O)O)C(=O)O [Glutamate, glutamate, reference compound]
GSH level ([5]; glutamate 10 mM alone): 277 ± 24 pmol/well | GSH level ([5]; glutamate 10 mM alone, listed as glutamate): 277 pmol/well | reduction in intracellular GSH level versus control ([5]; glutamate 10 mM, 6~7 hr): ~3 fold | increase in toxic intracellular peroxides ([3]; glutamate 10 mM): ~3 fold | Intracellular peroxides [3]: 205 ± 35 rfu/μg protein | Intracellular peroxides ([3]; listed as glutamate): 205 rfu/μg protein | cytotoxicity at 10000 µM ([4]; 48 h, read-out: LDH release, % of total): 78 ± 7% | cytotoxicity at 10000 µM ([4]; read-out: cell death): ~78%

C[C@]12N[C@H](Cc3ccccc31)c1ccccc12 [MK801, reference compound]
prevention of LDH release ([4]; NMDA antagonist, data not shown, in words): not prevented

Source: patent US5955485A, “Use of fused benzothiazoles as neuroprotectants” (Janssen Pharmaceutica, N.V., priority 1995, dated 1999)
